Experimental data from patent US20120165384A1, “INHIBITION OF HISTONE ACETYLTRANSFERASES BY CTK7A AND METHODS THEREOF” (JAWAHARLAL NEHRU CENTRE FOR ADVANCED SCIENTIFIC RESEARCH, priority 2009, published 2012).

Key:
PCAF [1] = target: T1, PCAF (Homo sapiens, UniProt Q92831); experiment: HAT assay with recombinant PCAF; format: biochemical
T1 construct: Recombinant baculovirus expressing full-length FLAG-tagged CARM1,CBP and PCAF; FLAG; made in house; host or cells: baculovirus-infected Sf21 cells
T1 sequence (Q92831 whole entry, species assumed): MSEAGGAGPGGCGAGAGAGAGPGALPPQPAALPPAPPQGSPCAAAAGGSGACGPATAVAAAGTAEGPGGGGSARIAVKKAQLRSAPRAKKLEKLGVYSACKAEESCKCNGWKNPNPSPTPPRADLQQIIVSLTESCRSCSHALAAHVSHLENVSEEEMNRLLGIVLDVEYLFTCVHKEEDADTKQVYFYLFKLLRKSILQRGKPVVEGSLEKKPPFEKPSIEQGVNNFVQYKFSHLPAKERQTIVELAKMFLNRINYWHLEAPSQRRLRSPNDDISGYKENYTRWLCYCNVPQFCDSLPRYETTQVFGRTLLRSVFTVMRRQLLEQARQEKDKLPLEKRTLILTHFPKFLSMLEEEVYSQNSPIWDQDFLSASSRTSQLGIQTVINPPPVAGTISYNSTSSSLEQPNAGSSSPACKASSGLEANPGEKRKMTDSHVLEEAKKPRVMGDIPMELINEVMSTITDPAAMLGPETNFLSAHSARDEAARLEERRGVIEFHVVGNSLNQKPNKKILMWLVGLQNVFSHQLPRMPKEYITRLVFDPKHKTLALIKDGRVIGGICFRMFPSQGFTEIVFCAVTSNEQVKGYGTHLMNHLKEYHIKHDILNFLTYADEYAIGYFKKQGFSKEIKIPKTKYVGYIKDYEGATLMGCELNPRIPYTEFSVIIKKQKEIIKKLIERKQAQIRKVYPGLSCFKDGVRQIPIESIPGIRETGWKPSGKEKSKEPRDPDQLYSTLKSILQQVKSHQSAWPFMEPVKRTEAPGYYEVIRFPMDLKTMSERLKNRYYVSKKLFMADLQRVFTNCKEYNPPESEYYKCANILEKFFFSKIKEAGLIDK
Protocol: (§1) Recombinant baculovirus expressing full-length FLAG-tagged CARM1,CBP and PCAF were purified by immunoaffinity chromatography using M2-agarose beads followed by elution with FLAG peptide. Baculovirus-expressed full-length hexahistidine-tagged p300, and G9a were purified using Ni-NTA affinity chromatography as described previously^30.
(§2) HAT gel fluorography/autoradiography assays were performed as previously reported^30. Kinetic analysis of p300 HAT inhibition was performed as reported earlier^31 in the presence of (0, 30 and 50 μM) CTK7A. The obtained values were plotted as a lineweaver burk plot using Graphpad Prism software. For p300 Autoacetylation assay, reactions of p300 full length (80 ng) were carried out in HAT assay buffer at 30° C. for 10 minutes with or without the protein (NPM1) followed by addition of 1 μl of 4.7 Ci/mmol [^3H] acetyl CoA (NEN-PerkinElmer) and were further incubated for another 10 min in a 30 μl reaction. GAPDH was used as positive control. The radio-labeled acetylated p300 were processed by fluorography followed by autoradiography.

full length p300 = target: T2, full length p300 (Homo sapiens, UniProt Q09472); experiment: p300 autoacetylation assay in vitro (3H-acetyl CoA, fluorography/autoradiography); format: biochemical; settings: in vitro, concentration dependent
T2 construct: hexahistidine; made in house; host or cells: baculovirus-infected Sf21 cells
T2 sequence (Q09472 whole entry, species assumed): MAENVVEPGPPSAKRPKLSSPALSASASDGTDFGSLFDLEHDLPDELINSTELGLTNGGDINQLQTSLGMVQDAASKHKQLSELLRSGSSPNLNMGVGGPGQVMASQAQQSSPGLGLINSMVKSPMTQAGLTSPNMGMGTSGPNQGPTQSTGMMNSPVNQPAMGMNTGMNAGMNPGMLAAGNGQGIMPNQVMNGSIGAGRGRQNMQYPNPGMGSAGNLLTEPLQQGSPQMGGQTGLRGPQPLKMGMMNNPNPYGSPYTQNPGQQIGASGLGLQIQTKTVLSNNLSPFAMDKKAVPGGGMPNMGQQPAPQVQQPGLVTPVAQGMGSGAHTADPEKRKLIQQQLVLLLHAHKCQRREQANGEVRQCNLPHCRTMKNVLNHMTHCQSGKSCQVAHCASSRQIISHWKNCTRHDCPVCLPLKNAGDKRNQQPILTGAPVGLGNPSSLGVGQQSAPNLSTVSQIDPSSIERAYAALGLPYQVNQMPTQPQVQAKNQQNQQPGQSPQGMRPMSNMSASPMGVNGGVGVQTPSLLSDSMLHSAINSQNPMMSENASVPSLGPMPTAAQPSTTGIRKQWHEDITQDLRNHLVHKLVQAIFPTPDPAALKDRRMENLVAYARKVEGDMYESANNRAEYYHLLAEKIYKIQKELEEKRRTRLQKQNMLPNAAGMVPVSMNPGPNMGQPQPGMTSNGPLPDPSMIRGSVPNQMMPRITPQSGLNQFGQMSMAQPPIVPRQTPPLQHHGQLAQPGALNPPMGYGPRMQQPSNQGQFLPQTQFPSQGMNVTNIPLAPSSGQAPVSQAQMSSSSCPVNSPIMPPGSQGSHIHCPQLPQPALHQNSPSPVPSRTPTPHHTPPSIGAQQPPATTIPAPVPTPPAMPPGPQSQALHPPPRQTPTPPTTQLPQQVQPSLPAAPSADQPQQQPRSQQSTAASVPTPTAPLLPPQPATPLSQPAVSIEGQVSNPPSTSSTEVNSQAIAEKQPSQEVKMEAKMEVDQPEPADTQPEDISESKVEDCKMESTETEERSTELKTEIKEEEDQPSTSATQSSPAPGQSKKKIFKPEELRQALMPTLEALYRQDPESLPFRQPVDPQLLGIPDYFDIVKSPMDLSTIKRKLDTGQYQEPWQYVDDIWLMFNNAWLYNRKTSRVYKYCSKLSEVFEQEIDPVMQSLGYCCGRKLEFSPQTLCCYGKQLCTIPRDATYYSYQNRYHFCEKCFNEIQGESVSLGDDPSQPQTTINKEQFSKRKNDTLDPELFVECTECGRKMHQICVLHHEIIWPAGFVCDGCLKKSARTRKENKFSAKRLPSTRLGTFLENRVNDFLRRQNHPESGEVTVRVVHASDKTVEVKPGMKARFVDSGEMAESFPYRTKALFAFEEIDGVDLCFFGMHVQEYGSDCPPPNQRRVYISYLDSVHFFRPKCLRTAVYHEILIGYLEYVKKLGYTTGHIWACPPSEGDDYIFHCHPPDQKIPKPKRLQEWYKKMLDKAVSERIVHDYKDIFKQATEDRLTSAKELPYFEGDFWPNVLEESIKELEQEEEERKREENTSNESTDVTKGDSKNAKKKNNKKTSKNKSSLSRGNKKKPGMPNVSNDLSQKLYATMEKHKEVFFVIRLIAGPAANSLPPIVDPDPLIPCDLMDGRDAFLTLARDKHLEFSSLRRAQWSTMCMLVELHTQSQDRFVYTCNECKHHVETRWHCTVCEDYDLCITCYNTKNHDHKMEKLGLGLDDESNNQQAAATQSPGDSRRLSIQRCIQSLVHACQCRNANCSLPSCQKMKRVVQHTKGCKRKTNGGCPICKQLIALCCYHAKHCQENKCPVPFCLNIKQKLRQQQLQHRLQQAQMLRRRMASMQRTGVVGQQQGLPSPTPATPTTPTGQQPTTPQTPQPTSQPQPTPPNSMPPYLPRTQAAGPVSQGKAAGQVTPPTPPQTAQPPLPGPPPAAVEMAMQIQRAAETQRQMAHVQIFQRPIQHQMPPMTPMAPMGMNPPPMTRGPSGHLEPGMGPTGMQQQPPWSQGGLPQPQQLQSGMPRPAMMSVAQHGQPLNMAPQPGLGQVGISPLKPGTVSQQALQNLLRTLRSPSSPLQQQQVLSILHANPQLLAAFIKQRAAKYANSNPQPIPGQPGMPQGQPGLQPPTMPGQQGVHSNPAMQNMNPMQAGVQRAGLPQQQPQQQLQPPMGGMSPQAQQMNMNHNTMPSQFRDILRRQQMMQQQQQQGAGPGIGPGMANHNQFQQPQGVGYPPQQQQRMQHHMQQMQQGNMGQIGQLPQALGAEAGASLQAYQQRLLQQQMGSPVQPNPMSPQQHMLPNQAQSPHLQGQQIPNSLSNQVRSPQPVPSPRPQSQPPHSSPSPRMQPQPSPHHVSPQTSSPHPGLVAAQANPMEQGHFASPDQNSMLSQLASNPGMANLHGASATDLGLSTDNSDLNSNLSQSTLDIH
Protocol: as §2

PCAF [2] = target: T1, PCAF; experiment: PCAF autoacetylation assay in vitro; format: biochemical; settings: concentration dependent
CBP = target: T3, CBP (Homo sapiens, UniProt Q92793); experiment: HAT assay with recombinant CBP; format: biochemical
T3 construct: Recombinant baculovirus expressing full-length FLAG-tagged CARM1,CBP and PCAF; FLAG; made in house; host or cells: baculovirus-infected Sf21 cells
Protocol: as §1, §2

KB cells = experiment: Senescence-associated β-gal (SA-β-gal) activity analysis; format: cell-based
Protocol: SA-β-gal activity was analyzed in KB cells as described earlier^47.

HDAC1 = HDAC1 (Homo sapiens, UniProt Q13547); experiment: Histone deacetylase assay, HDAC1; format: biochemical; settings: even at 100 μM
Chain of HDAC1 (Q13547 whole entry, species assumed): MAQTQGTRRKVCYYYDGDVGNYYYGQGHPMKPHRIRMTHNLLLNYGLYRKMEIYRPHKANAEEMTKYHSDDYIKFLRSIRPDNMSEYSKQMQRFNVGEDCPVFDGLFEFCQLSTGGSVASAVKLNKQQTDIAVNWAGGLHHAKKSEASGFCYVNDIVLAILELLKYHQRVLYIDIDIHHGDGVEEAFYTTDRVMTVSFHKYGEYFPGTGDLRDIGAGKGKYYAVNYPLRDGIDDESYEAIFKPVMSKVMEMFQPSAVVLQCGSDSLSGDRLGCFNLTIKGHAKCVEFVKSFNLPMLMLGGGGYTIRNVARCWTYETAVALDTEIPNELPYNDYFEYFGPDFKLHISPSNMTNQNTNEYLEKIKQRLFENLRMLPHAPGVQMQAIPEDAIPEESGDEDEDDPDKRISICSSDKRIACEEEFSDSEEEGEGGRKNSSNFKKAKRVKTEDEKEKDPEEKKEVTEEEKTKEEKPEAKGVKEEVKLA
Protocol: The deacetylation assay was performed as per standard protocol^31. For SirT2 deacetylase assay, 50 ng of bacterially expressed, recombinant enzyme was added in the presence or absence of cofactor NAD^+. HMTase was performed as reported earlier^31.

Tip60 = Tip60 (Homo sapiens, UniProt Q92993); experiment: HAT assay, Tip60; format: biochemical; settings: even at 100 μM
Chain of Tip60 (Q92993 whole entry, species assumed): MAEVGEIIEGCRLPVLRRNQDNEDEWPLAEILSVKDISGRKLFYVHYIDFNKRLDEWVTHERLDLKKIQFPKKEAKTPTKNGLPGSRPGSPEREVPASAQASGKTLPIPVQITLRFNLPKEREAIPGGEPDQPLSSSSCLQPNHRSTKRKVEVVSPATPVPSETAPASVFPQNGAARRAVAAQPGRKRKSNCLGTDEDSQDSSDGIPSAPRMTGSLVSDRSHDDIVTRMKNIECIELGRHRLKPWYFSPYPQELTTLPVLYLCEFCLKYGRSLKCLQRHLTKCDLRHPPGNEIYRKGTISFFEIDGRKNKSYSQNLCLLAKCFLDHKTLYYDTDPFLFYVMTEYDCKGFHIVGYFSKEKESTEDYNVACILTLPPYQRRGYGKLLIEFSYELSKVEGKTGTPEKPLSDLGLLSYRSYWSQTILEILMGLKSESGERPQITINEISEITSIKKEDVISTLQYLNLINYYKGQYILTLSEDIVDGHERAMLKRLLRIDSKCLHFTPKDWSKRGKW
Protocol: as §2

[3] = system: cyclin E and cyclin D1 expression in KB cells; experiment: Cyclin expression in KB cells; format: cell-based
Protocol: KB cells were maintained in Dullbecco's modified Eagle medium (DMEM) with 10% fetal bovine serum (FBS) at 37° C. with a 5% CO2 atmosphere in a humidified incubator. For IFNγ and GSNO treatment, KB cells were incubated in the presence of IFNγ 10 ng ml^−1 for an additional 16 h and 24 h respectively. Immunofluorescent staining of cells for confocal microscopy was carried out as described previously^30. CTK7A treatment was done for 24 h followed by acid extraction of histone and immunoblotting as per standard protocol^31. For whole cell extract preparation RIPA buffer (Tris-HCl 50 mM, pH 7.4 NP-40 1%, Na-deoxycholate 0.25%, NaCl 150 mM, EDTA 1 mM, Phenylmethylsulfonyl fluoride (PMSF), 1 mM Na3VO4, 1 mM NaF and protease inhibitor cocktail) was used.

[4] = Toxicity in mice after intraperitoneal administration; format: in vivo
Protocol: The in vitro and cell line based studies prompted us to study the role of CTK7A in xenograft mice. […] In order to test the effect of CTK7A on tumor growth, KB cells (2×10^6 cells) were inoculated in nude mice in the right and left flanks, respectively and treated them intraperitoneally with 100 mg/kg body weight/twice a day (for detail see Materials and Methods). […] KB cell tumors were 50% smaller in mice treated with CTK7A than in control untreated mice. The differences in the tumor size between xenografts (Control vs treated) was statistically significant (p<0.05). The levels of H3 acetylation and that of other proteins (e.g. NPM1, GAPDH, p300) were determined using IHC. […] It was observed that CTK7A decreased the levels of H3K9, K14 acetylation (as probed by H3AcK9AcK14) and ac-p300 (FIG. 6b and FIG. 6c). Further to see the site specific effect of CTK7A mediated HAT inhibition on histone acetylation, IHC was done with site specific antibodies. […] Moreover, the levels of COX2, which is induced in many cell types by mitogens, growth factors, cytokine and tumor promoters and has been implicated in many cancers, including oral cancer was also found to be suppressed in CTK7A treated tumors (FIG. 6b).

KB cell xenografts = experiment: Xenograft growth assay; format: in vivo, nude mice (BALB/c); settings: i.p. 100 mg/kg body weight/twice a day; p<0.05
Protocol: Animal experiments were performed with the approval by authorized ethics Committee. Sixteen nude mice (BALB/c) were included in the experiments (10 male and 6 female mice). Mice were kept in isolators in a pathogen free environment. All nude mice were 3-4 weeks old at the start of the experiments. KB cells, 2×10^6 cells were inoculated in each mice in the right and left flanks, respectively. Mice were then divided in two groups (5 males and 3 females) in each group. After the tumors grown to palpable in size, CTK7A treatment were given intraperitoneally (i.p) with 100 mg/kg body weight/twice a day. Tumors were measured once in three days with a caliper and their volumes were calculated by the formula: 0.52×D1×(D2)^2, where ‘D1’ and ‘D2’ are, respectively, the longest and shortest dimension. The last dose of the compound (CTK7A) was administered four hour before sacrificing it. Tumors were removed and put into liquid nitrogen or were fixed in 10% formalin for 1-2 h to make blocks to be used for IHC. For comparing tumor sizes between treated and control one-way ANOVA was performed using “Sigmaplot Software”. P-value<0.05 was considered as statistically significant.

[5] = system: H3 acetylation at the cyclin E promoter in KB cells; experiment: ChIP assay, acetylated H3 at cyclin E promoter; format: cell-based; settings: 24 hrs treatment
Protocol: The pull-downs for ChIP assay was performed using anti-acetylated H3 (H3AcK9AcK14) (Santa Cruz) antibody. KB cells were maintained in DMEM supplemented with 10% FBS were treated with CTK7A and cells were grown for 24 hrs. For ChIP assay cells were processed as described elsewhere^47. The pulldown was done using antibody against the above antibody and the immunoprecipitated samples were deproteinized and ethanol-precipitated to recover the DNA. Real-time PCR analysis was performed using primers for the cyclin E promoter region. PCR primers for the cyclin E promoter region were […]

In the case of `COc1cc([O-])cc(C=CC2=NN(c3ccc(C(=O)[O-])cc3)C(C=Cc3cc([O-])cc(OC)c3)C2)c1.[Na+].[Na+].[Na+]` (stereo not shown) [CTK7A, Sodium 4-(3,5-bis(3-methoxy-5-oxidostyryl)-4,5dihydro-1H-pyrazole-1-yl)benzoate], the “inhibition of PCAF HAT activity” value (PCAF [1]) is reported as “inhibit”, the “inhibition of p300 autoacetylation” value (full length p300) is reported as “inhibit” and the “inhibition of PCAF autoacetylation” value (PCAF [2]) is reported as “inhibit”. The “inhibition of CBP HAT activity” value (CBP) was “inhibit”, the “expression of senescence associated beta-galactosidase (SA-β-gal)” value (KB cells) was “induced” and the “effect on HDAC1 activity” value (HDAC1) was “unaffected”. The “effect on Tip60 activity” value (Tip60) was “unaffected”, the “cyclin D1 expression” value [3] was “affected marginally” and the “cyclin E expression” value ([3]; dose dependent) was “down regulated”. For the same compound, the body weight loss ([4]; doses up to 100 mg/kg body weight/twice a day during 1 month) was “no observed weight loss”, the toxicity to mice ([4]; intraperitoneal (i.p) administration) was “not toxic” and the “KB cell tumors smaller than in control untreated mice” value (KB cell xenografts) was 50%. The “acetylation of H3 at the cyclin E promoter” value [5] was “inhibited”.
